Test results as given in PMC9867837 (Cancer letters, 2022).
Values after ≈ are worked out from the molar mass of the structure shown. Values joined by “and” are separate entries in the source; they are usually repeats but may differ in a detail not shown here. Equal values may be shown once. Read-outs that look alike come from different tables or passages of the source.

Tests used:
[1] = tested on: HCC1937 cells; assay: CyQuant viable cell number assay, HCC1937; assay type: cell-based, human; conditions: read-out: IC50 viable cell numbers, HCC1937
Description: (§1) CyQuant assay was performed to evaluate compounds as previously reported. Details are presented in Supplementary Information, “Methods”. […]
(§2) 1.2.6. Cell viability assays
(§3) CyQuant assay was performed to evaluate compounds as previously reported [1 -3] . Briefly, cells (5 x 10^3 per well, 100 µl) in culture in 96-well plates were treated once with 0 -10 µM concentrations of H120, H105, […]
(§4) concentration of H182 for 6 h and then treated with 0- 100 nM docetaxel or 0-20 µM cisplatin for a total of 72 h. Viable cell numbers were assessed by a CyQuant cell proliferation kit according to the manufacturer’s instructions (Thermo/Life Technologies Corp, Carlsbad, CA). Viable cell numbers were normalized to that of DMSO (control)-treated samples. […]

[2] = biological target: Stat3 (Homo sapiens, UniProt P40763); assay: EMSA of constitutive Stat3 DNA-binding activity in nuclear extracts of treated breast cancer cells; assay type: cell-based; set-up: endogenous in cells; conditions: MDA-MB-468 and MDA-MB-231, 0–5 μM, 1 or 2 h
Stat3, sequence (P40763 whole entry): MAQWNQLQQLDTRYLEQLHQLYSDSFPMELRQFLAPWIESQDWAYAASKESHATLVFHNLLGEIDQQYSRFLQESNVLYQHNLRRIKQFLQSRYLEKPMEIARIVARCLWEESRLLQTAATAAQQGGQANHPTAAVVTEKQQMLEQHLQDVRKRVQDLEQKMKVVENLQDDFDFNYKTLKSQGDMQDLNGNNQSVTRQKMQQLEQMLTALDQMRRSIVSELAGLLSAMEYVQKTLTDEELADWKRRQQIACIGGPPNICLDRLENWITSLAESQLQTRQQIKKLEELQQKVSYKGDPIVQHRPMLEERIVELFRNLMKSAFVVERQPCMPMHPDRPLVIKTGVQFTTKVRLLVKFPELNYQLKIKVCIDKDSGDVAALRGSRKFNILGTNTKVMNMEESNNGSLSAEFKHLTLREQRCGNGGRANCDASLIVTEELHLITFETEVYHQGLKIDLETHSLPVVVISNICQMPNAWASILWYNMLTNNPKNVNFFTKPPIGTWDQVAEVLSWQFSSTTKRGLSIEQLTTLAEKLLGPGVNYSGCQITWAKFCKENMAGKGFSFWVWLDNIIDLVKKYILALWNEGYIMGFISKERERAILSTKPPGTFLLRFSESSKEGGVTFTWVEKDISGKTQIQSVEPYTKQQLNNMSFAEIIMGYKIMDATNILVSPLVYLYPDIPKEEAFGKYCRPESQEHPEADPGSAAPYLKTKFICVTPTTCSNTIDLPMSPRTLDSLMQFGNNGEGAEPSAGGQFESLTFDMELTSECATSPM
Description: These studies were carried out as previously described using the ^32P-labeled oligonucleotide probes, hSIE (high affinity sis-inducible element from the c-fos gene, m67 variant, 5^′-[…]) that binds Stat1 and Stat3 [11, 12] and the mammary gland factor element (MGFe) from the bovine β–casein gene promoter (sense strand, 5^′-[…]) that binds Stat5 and Stat1 [11, 12]. Details are presented in Supplementary Information, “Methods”.
Nuclear extracts and whole-cell lysates were prepared, and samples of equal total protein were subjected to Stat3 DNA-binding assay/EMSA analysis using the hSIE probe, or to SDS/PAGE and Western blotting analysis for pY705Stat3, Stat3, or GAPDH [11, 12]. […] Depending on the concentration (1, 3, or 5 μM), the inhibitory effects of the azetidine compounds were observed relatively early, at 30–60 min, on both Stat3 DNA-binding activity (Fig. 4C) and Tyr phosphorylation (Fig. 4D, pY705Stat3).

[3] = tested on: normal human mesothelial cells; assay: CyQuant viable cell number assay, normal mesothelial cells; assay type: cell-based; conditions: 72 h, read-out: IC50 viable cell numbers, normal human mesothelial cells
Description: as §1, §2, §3, §4

[4] = tested on: MDA-MB-231 cells; assay: CyQuant viable cell number assay, MDA-MB-231; assay type: cell-based, human; conditions: Homo sapiens, MDA-MB-231, read-out: IC50 viable cell numbers, MDA-MB-231; CyQuant, 72 h
Description: as §1, §2, §3, §4

[5] = biological target: Stat5:Stat5 DNA-binding activity; assay: EMSA of Stat5:Stat5 DNA-binding activity in nuclear extracts of EGF-stimulated NIH3T3/hEGFR; assay type: biochemical, mouse; conditions: Fig. 1C, MGFe probe, 30 min
Description: (§5) These studies were carried out as previously described using the ^32P-labeled oligonucleotide probes, hSIE (high affinity sis-inducible element from the c-fos gene, m67 variant, 5^′-[…]) that binds Stat1 and Stat3 [11, 12] and the mammary gland factor element (MGFe) from the bovine β–casein gene promoter (sense strand, 5^′-[…]) that binds Stat5 and Stat1 [11, 12]. Details are presented in Supplementary Information, “Methods”. […]
(§6) min, prior to incubation with the radiolabeled probe for 30 min at 30 °C and subjecting to EMSA analysis.
(§7) In another case, the nuclear extract was pre-incubated with the radiolabeled probe for 30 min at 30 °C prior to incubation with increasing concentration of H182 at room temperature for 30 min and subjecting to EMSA analysis. Bands corresponding to Stats DNA- binding activities were scanned and quantified using ImageJ and plotted as a percentage of control (vehicle) against the concentration of the inhibitor, from which the IC50 values were derived .

[6] = Solubility; assay type: physicochemical
Description: Solubility, human (HLM) and mouse liver microsomal (MLM), and plasma stability studies were performed by Eurofins Cerep Panlabs and Eurofin Discovery Services (www.eurofins.com/PharmaDiscovery), while protein binding studies were performed by Sanford Burnham Prebys Chemical Biology & Drug Discovery Core using standard protocols.

[7] = tested on: MDA-MB-468 cells; assay: CyQuant viable cell number assay, MDA-MB-468; assay type: cell-based, human; conditions: read-out: IC50 viable cell numbers, MDA-MB-468
Description: as §1, §2, §3, §4

[8] = biological target: T1, Stat1:Stat1 DNA-binding activity (Mus musculus, UniProt P42225); assay: EMSA of Stat1:Stat1 DNA-binding activity in nuclear extracts of EGF-stimulated NIH3T3/hEGFR; assay type: biochemical; conditions: Fig. 1C, 30 min
T1 construct: endogenous in cells; host or cells: EGF-stimulated NIH3T3/hEGFR fibroblasts (nuclear extract)
T1 sequence (P42225 2-749 limits assumed): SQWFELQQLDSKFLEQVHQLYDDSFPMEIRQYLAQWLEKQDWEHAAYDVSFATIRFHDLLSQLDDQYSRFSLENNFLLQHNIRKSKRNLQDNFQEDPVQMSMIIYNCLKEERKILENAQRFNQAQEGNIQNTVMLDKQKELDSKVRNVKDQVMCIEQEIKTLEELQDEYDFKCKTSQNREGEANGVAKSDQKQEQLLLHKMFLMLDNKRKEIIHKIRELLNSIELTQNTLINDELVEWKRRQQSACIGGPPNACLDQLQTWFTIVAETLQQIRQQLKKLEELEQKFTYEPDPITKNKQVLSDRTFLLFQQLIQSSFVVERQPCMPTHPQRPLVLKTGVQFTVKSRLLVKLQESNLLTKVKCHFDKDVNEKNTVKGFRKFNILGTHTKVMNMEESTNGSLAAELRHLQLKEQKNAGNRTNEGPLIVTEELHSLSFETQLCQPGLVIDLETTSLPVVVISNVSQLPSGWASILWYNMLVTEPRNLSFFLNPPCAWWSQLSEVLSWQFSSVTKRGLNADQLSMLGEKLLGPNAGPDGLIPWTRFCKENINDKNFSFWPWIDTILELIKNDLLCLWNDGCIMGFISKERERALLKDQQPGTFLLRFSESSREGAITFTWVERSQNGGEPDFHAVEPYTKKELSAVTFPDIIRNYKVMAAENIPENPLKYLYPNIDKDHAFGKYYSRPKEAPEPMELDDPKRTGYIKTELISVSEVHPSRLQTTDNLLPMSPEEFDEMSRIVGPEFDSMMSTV
Description: as §5, §6, §7

[9] = aqueous buffer, PBS pH 7.4, read-out: Solubility PBS pH 7.4
[10] = first Stat1:Stat1 value listed (hSIE probe)
[11] = second Stat1:Stat1 value listed (MGFe probe)

| Solubility SGF ([6]; simulated gastric fluid) [µg/mL] | Solubility SIF ([6]; simulated intestinal fluid) [µg/mL] | Structure (SMILES) | IC50 ([1]; 72 h) [µM] | IC50 ([1]; Homo sapiens, HCC1937, 72 h) [µM] | Effect on constitutive Stat3 DNA-binding activity in cells [2] | IC50 [3] [µM] | IC50 [4] [µM] | IC50 [5] [µM] | solubility [6, 9] [µg/mL] | solubility ([6]; simulated gastric fluid, read-out: Solubility SGF) | solubility ([6]; simulated intestinal fluid, fassgf or other biorelevant, read-out: Solubility SIF) [µg/mL] | IC50 ([7]; 72 h) [µM] | IC50 ([7]; Homo sapiens, MDA-MB-468, 72 h) [µM] | IC50 [8, 10] [µM] | IC50 [8, 11] [µM] |
| --- | --- | --- | --- | --- | --- | --- | --- | --- | --- | --- | --- | --- | --- | --- | --- |
| – | – | O=C([C@H]1CCN1S(=O)(=O)c1c(F)c(F)c(F)c(F)c1F)N(Cc1ccc(C2CCCCC2)cn1)c1ccc2c(=O)[nH]ncc2c1 [Compound H182] | 3 | 3.6 to 4.3 | dose-dependent inhibition | 4.9 to 9.2 | 1 | 19.1 | 3 (≈ 4.63 µM) | 130 µg/mL and 132 µg/mL | 128 (≈ 198 µM) | 1.1 | 1 | 16.8 | 17.8 |
| 104 (≈ 161 µM) | 123 (≈ 190 µM) | O=C([C@H]1CCN1S(=O)(=O)c1c(F)c(F)c(F)c(F)c1F)N(Cc1ccc(C2CCCCC2)cn1)c1ccc2c(=O)[nH]cnc2c1 [Compound H172] | 4.8 | 3.6 to 4.3 | dose-dependent inhibition | 4.9 to 9.2 | 3.3 | 20 | 6.3 (≈ 9.73 µM) | – | – | – | 1.5 | > 20 | > 20 |
